For one data set, the system named is iPSC-CM. As to the kind of experiment: Ca2+ flux phenotypic assay. Particulars: for beat frequency from Ca2+ flux traces: 100 μM, 90 minutes after treatment, vehicle ~30 beats per minute. In general terms: A change in cytosolic calcium serves as a functional read-out for many receptors and channels.
The next data set concerns iPSC-Hep. As to the kind of experiment: High-content imaging phenotypic assay in iPSC-derived hepatocytes, 48 h exposure. It is filed as cell-based, human. Particulars: 0.1-100 μM, benchmark 1 SD.

For the compound `O=S(=O)(O)CCC(F)(F)C(F)(F)C(F)(F)C(F)(F)C(F)(F)C(F)(F)C(F)(F)C(F)(F)F` [8:2 FTS, 8:2 Fluorotelomer sulfonic acid], the “negative chronotropy: effect that reached benchmark response (5% change)” value (“negative chronotropy … (5% change)” below) with iPSC-CM (0.1-100 μM, 90 min) is “decreased peak frequency”.
Turning to `N.O=C(O)C(F)(F)C(F)(F)C(F)(F)C(F)(F)C(F)(F)C(F)(F)C(F)(F)F` [NH4PFOA, Ammonium perfluorooctanoate], the “negative chronotropy … (5% change)” value in the data set on iPSC-CM (0.1-100 μM, 90 min) was “decreased peak frequency”.
As to `O=S(=O)(O)C(F)(F)C(F)(F)C(F)(F)C(F)(F)F` [PFBS, Perfluorobutanesulfonic acid], in the data set on iPSC-CM, the “beat frequency from Ca2+ flux traces” value is 24 beats per minute. The “negative chronotropy … (5% change)” value in the data set on iPSC-CM (0.1-100 μM, 90 min) is “decreased peak frequency”.
Turning to `O=S(=O)([O-])C(F)(F)C(F)(F)C(F)(F)C(F)(F)C(F)(F)C(F)(F)C(F)(F)C(F)(F)C(F)(F)C(F)(F)F.[Na+]` [PFDS-Na, Sodium perfluorodecanesulfonate], in the data set on iPSC-CM (0.1-100 μM, 90 min), the “QT prolongation: effect that reached benchmark response (5% change)” value is given as “QT prolongation” and the “negative chronotropy … (5% change)” value is listed as “decreased peak frequency”.
In the case of `O=C(O)C(F)(F)C(F)(F)OC(F)(F)F` [PFMPA, Perfluoro-3-methoxypropanoic acid], in the data set on iPSC-CM (0.1-100 μM, 90 min), the “negative chronotropy … (5% change)” value is reported as “decreased peak frequency”.
Consider `O=C(O)C(F)(F)C(F)(F)C(F)(F)C(F)(F)C(F)(F)C(F)(F)C(F)(F)F` [PFOA, Perfluorooctanoic acid], for which, in the data set with iPSC-Hep, the “concentration-response phenotypic effect on cell mean area” value was “increased mean cell area”. Besides, the “negative chronotropy … (5% change)” value in the data set on iPSC-CM (0.1-100 μM, 90 min) is given as “decreased peak frequency”.
As to `O=C(O)C(F)(F)C(F)(F)C(F)(F)C(F)(F)C(F)(F)C(F)(F)C(F)(F)C(F)(F)C(F)(F)C(F)(F)C(F)(F)C(F)(F)C(F)(F)F` [PFTeDA, Perfluorotetradecanoic acid], the “negative chronotropy … (5% change)” value with iPSC-CM (0.1-100 μM, 90 min) is “decreased peak frequency”.
Take `O=C(O)C(F)(F)C(F)(F)C(F)(F)C(F)(F)C(F)(F)C(F)(F)C(F)(F)C(F)(F)C(F)(F)C(F)(F)C(F)(F)C(F)(F)F` [PFTiDA, Perfluorotridecanoic acid]: the “beat frequency from Ca2+ flux traces” value in the data set with iPSC-CM stood at 12 beats per minute. In the data set with iPSC-CM (0.1-100 μM, 90 min), the “negative chronotropy … (5% change)” value is “decreased peak frequency”.
